{
  "source": "patent US9877951B2",
  "about": "“Method for treating dementia” (College of William and Mary, priority 2015, dated 2018)",
  "origin": "cited, not measured here",
  "key": {"[1]": {"conditions": "storage"}, "[2]": {"conditions": "chronic dosing at typical tuberculosis doses"}, "[3]": {"conditions": "for ability of DCS to facilitate extinction: DCS for five consecutive days"}, "[4]": {"test": "not given", "remark": "listed apart in the source"}, "[5]": {"tested_on": "Mycobacterium tuberculosis strains", "conditions": "typical Mycobacterium tuberculosis strains"}},
  "note": "Where two headings read alike, the source gives them in different places.",
  "data": [
    {"smiles": "CC(=O)C=C(C)N[C@@H]1CONC1=O", "note": "[(R)-4-[(1-methyl-3-oxo-1-butenyl)-amino]-3-isoxazolidinone]", "values": [
      {"measurement": "stability relative to DCS", "setting": "[1]", "value": "enhanced stability relative to DCS"}
    ]},
    {"smiles": "N[C@@H]1CON=C1O", "note": "[DCS, 3-Isoxazolidinone, 4-amino-, (4R)-(9Cl)]", "values": [
      {"measurement": "serum concentrations generally maintained", "setting": "dose of 500 mg/day", "value": "25000 to 30000", "unit": "ng/mL"},
      {"measurement": "time of peak serum concentrations after dosing", "setting": "oral capsules", "value": "3 to 8", "unit": "h"},
      {"measurement": "peak serum concentrations", "setting": "sub-antimicrobial doses (less than or equal to 2 mg/kg)", "value": "less than or equal to 5 μg/mL"},
      {"measurement": "recorded side effects", "setting": "[2]", "value": "drowsiness, depression, headache, confusion, tremor, vertigo, and memory difficulties, paresthesias, and seizure"},
      {"measurement": "ability of DCS to facilitate extinction learning", "setting": "[3]; rats exposed to DCS for 15 consecutive days", "value": "eliminated"},
      {"measurement": "ability of DCS to facilitate extinction", "setting": "[3]; rats, extinction paradigm 28 days later", "value": "restored"},
      {"measurement": "ability of DCS to facilitate extinction", "setting": "[3]; rats, extinction paradigm two days later", "value": "significantly decreased"},
      {"measurement": "benefit on Alzheimer's Disease", "setting": "[4]; 100 mg daily administration (Tsai et al.)", "value": "positive benefit"},
      {"measurement": "benefit for treatment of Alzheimer's Disease", "setting": "[4]; up to 50 mg daily dosing, 410-patient trial (Fakouhi et al.)", "value": "did not have a significant benefit"},
      {"measurement": "minimum inhibitory concentrations (MIC) in vitro", "setting": "[5]", "value": "6 to 25", "unit": "µg/mL"}
    ]},
    {"smiles": "CN(C)CCCN1c2ccccc2CCc2ccccc21", "note": "[imipramine]", "values": [
      {"measurement": "effect on ability of DCS to facilitate extinction learning", "setting": "[3]; rats, daily administration of imipramine for 15 days", "value": "blocked the ability of DCS to facilitate extinction learning"}
    ]}
  ]
}
